Patent US10570179B2, “Substituted urea depsipeptide analogs as activators of the CLPP endopeptidase” (priority 2016, dated 2020)
Values after ≈ are worked out from the molar mass of the structure shown. Where two headings read alike, the source gives them in different places. Numbered stars: 1 amine (or outer) side, 2 acyl side, 3 side chain; on linkers, the order of the positions; unused ones are H or OH. Bridge positions count the residues as written; N and C are the ends. Square brackets hold non-standard residues; d marks the D form. Peptide text beside a SMILES is read from it. * marks the point of attachment. Phe(3-Me) = Cc1cccc(C[C@H](N)C(=O)O)c1; NH(4-Cl-2-F-phenyl) = Fc1cc(Cl)ccc1N*; Pro(4R-Me) = C[C@H]1CN[C@H](C(=O)O)C1; Hyp = O=C(O)[C@@H]1C[C@@H](O)CN1; NH(4-Cl-phenyl) = Clc1ccc(N*)cc1; NH(4-Me-phenyl) = Cc1ccc(N*)cc1; NH(4-F-phenyl) = Fc1ccc(N*)cc1; aThr = C[C@H](O)[C@H](N)C(=O)O; NH(2-F-phenyl) = Fc1ccccc1N*; Pip = O=C(O)[C@@H]1CCCCN1; X7 = Clc1ccc(N*)c(Cl)c1; CO = O=C([*:1])[*:2]

Tests used:
[1] = system: MRSA NRS70; test: Minimal inhibitory concentration, microbroth dilution; format: cell-based; conditions: Staphylococcus aureus
Protocol: (§1) Minimal inhibitory concentrations (“MICs”) were determined using the microbroth dilution method according to Clinical Laboratory Standards Institute (CLSI; National, C.F. C. L. S., Methods for Dilution Antimicrobial Susceptibility Tests for Bacteria Grow aerobically-Seventh Edition: Approved Standard M7-A7, CLSI, Wayne, Pa., USA, 2008) and were read by visual inspection. Two fold serial dilutions of test compound in 100 μL of the appropriate broth media were first prepared in 96-well round bottom microtiter plates (Nalgene Nunc International, Rochester, N.Y., USA). An equivalent volume (100 μL) of bacterial broth inocula containing approximately 10^5 bacterial cfu/mL was added to each well to give final concentrations of test compound starting at 200 μM. The plates were then incubated aerobically at 37° C. All strains were incubated overnight. After incubations, in all cases the MIC was recorded as the lowest concentration of drug that prevented bacterial growth. The bacterial strains for which MIC was determined as described in Table 4.

[2] = system: E. faecails; test: as above; format: cell-based; conditions: Enterococcus faecalis
Protocol: as §1

[3] = system: S. aureus ATCC 29213; test: as above; format: cell-based; conditions: Staphylococcus aureus
Protocol: as §1

[4] = system: S. aureus USA 300; test: as above; format: cell-based; conditions: Staphylococcus aureus
Protocol: as §1

[5] = system: S. aureus ΔClpP; test: as above; format: cell-based, Staphylococcus aureus; conditions: MIC; ClpP inactivated
Protocol: as §1

[6] = molecular target: T1, S. aureus ClpP (Sa-ClpP) (Staphylococcus aureus, UniProt Q2G036); test: Casein-BODIPY digestion assay (ClpP activation); format: biochemical
T1 construct: made in house; host or cells: E. coli BL21 (DE3)
Protocol: The compounds were assayed in a casein digestion assay in order to determine their effect on ClpP activation. Briefly, the assay was carried out using S. aureus ClpP (“Sa-ClpP”) overexpressed in E. coli BL21 (DE3) and purified in a two-step process. Purity of the protein was assessed through SDS PAGE analysis. EC50 evaluations were conducted in triplicate in a 20 μl assay format using a method adapted from Maurizi et al. (Methods Enzymol. (1994) 244:314-331). Each well contained 10 μM saClpP, 25 μg/ml BODIPY FL casein (Invitrogen Corporation, San Diego, Calif.), and test compound in concentrations ranging between 0-1000 μM in assay buffer (50 mM Tris pH 8, 200 mM KCl, and 1 mM TCEP). The reaction took place at 37° C. Fluorescence (excitation 485 nm; emission 528 nm) was measured in five minute intervals over a 45 min period using a BioTek HT fluorescence microplate reader (BioTek Instruments, Inc., Winooski, Vt.). Velocity of each reaction was calculated and data was fit to a dose response curve using GraphPad Prism® software (GraphPad Software, Inc., La Jolla, Calif.). EC50 is the effective concentration of compound which causes 50% activation of S. aureus ClpP in the foregoing BODIPY FL casein assay.
Alternatively, the assay was carried out using EnzCheck Protease Assay (Molecular Probes, Catalog # E6638). The assay was performed in black 384 well, flat bottom, low volume plates (Greiner Bio-One, Monroe, N.C., catalog #784076). 10 μL of Tris.HCl buffer, pH 8.0 with 0.01% Triton X-100 was pipetted into each well using a Well-Mate (Thermo Scientific, Waltham, Mass.). 0.4 μL test compounds or controls (2% DMSO v/v) were added to each well using a Biomek FX liquid handling robot (Beckman Coulter, Indianapolis, Ind.). After addition of test compounds and controls, 10 μL of master mix containing 2 μM Sa-ClpP and 2 μM substrate (Bodipy-FL labeled casein) in Tris.HCl buffer, pH 8.0 with 0.01% (v/v) Triton X-100, was pipetted into each well. All assays were performed in triplicate, under linear velocity conditions. Increase in fluorescent signal following activation of Sa-ClpP by test compounds and controls was measured over time period of 30 mins using filters with excitation at 485±15 nm and emission at 520±25 nm on a PHERAstar FS Multilabel reader (BMG, Cary, N.C.). Instrument gains and enzyme linear velocity conditions were determined and validated using ADEP4, a known Sa-ClpP activator. Data analysis was done by measuring rate of casein degradation over time (slopes). Computed degradation rates (slopes) were normalized to positive (ADEP4) or negative (DMSO) controls. Using nonlinear regression curve fitting EC50 values and % activation were determined using the equation “log [agonist] vs. Response-variable slope (four parameters)-symmetrical” in the program Prism 6 (GraphPad Software, La Jolla, Calif. USA, www.graphpad.com).

[7] = MIC, read-out: Minimal Inhibitory Concentrations (μM) MRSA NRS70
[8] = MIC, read-out: Minimal Inhibitory Concentrations (μM) E. faecails
[9] = ATCC29213, MIC, read-out: Minimal Inhibitory Concentrations (μM) S. aureus ATCC 29213
[10] = USA300, MIC, read-out: Minimal Inhibitory Concentrations (μM) S. aureus USA 300
[11] = read-out: Minimal Inhibitory Concentrations (μM) MRSA NRS70, MIC
[12] = read-out: Minimal Inhibitory Concentrations (μM) E. faecails, MIC
[13] = ATCC29213, read-out: Minimal Inhibitory Concentrations (μM) S. aureus ATCC 29213, MIC
[14] = USA300, read-out: Minimal Inhibitory Concentrations (μM) S. aureus USA 300, MIC

T1 sequence (Q2G036 whole entry): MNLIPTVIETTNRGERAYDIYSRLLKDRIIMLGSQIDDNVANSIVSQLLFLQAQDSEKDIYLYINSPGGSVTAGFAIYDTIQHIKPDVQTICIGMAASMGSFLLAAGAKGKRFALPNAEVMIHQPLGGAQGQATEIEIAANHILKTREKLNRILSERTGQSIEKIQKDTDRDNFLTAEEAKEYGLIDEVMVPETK

Structure (SMILES)	Minimal Inhibitory Concentrations (μM) S. aureus ΔClpP [5] [µM]	MIC [1, 11] [µM]	MIC [2, 12] [µM]	MIC [3, 13] [µM]	MIC [4, 14] [µM]	EC50 [6] [µM]	other results
Cc1cccc(C[C@H](NC(=O)Nc2ccc(Cl)cc2F)C(=O)N[C@H]2COC(=O)[C@@H]3CCCN3C(=O)[C@H](C)NC(=O)[C@@H]3CCCCN3C(=O)[C@@H]3C[C@@H](O)CN3C2=O)c1 [Compound 48, (S)-2-(3-(4-CHLORO-2-FLUOROPHENYL)UREIDO)-N-((6S,8AS,14AS,16R,20S,23AS)-16-HYDROXY-6-METHYL-5,8,14,19,23-PENTAOXOOCTADECAHYDRO-1H,5H,14H,19H-PYRIDO[2,1-I]DIPYRROLO[2,1-C:2′,1′-L][1]OXA[4,7,10,13]TETRAAZACYCLOHEXADECIN-20-YL)-3-(M-TOLYL)PROPANAMIDE]							MIC [1, 7]: 1.25 µM (≈ 1.02 µg/mL); MIC [2, 8]: 2.5 µM (≈ 2.03 µg/mL); MIC [3, 9]: 1.25 µM (≈ 1.02 µg/mL); MIC [4, 10]: 1.25 µM (≈ 1.02 µg/mL)
Cc1cccc(C[C@H](NC(=O)Nc2ccc(Cl)cc2F)C(=O)N[C@@H]2C(=O)N3C[C@H](O)C[C@H]3C(=O)N3CCCC[C@H]3C(=O)N[C@@H](C)C(=O)N3CCC[C@H]3C(=O)O[C@H]2C)c1 [Compound 50, (S)-2-(3-(4-CHLORO-2-FLUOROPHENYL)UREIDO)-N-((6S,8AS,14AS,16R,20S,21S,23AS)-16-HYDROXY-6,21-DIMETHYL-5,8,14,19,23-PENTAOXOOCTADECAHYDRO-1H,5H,14H,19H-PYRIDO[2,1-I]DIPYRROLO[2,1-C:2′,1′-L][1]OXA[4,7,10,13]TETRAAZACYCLOHEXADECIN-20-YL)-3-(M-TOLYL)PROPANAMIDE] ({NH(4-Cl-2-F-phenyl)-CO}-[Phe(3-Me)][aThr][Hyp][Pip]AP; ester 2-C)	>20						MIC [1, 7]: 0.313 µM (≈ 0.259 µg/mL); MIC [2, 8]: 2.5 µM (≈ 2.07 µg/mL); MIC [3, 9]: 0.625 µM (≈ 0.516 µg/mL); MIC [4, 10]: 1.25 µM (≈ 1.03 µg/mL)
Cc1ccc(NC(=O)N[C@@H](Cc2cccc(C)c2)C(=O)N[C@@H]2C(=O)N3C[C@H](O)C[C@H]3C(=O)N3CCCC[C@H]3C(=O)N[C@@H](C)C(=O)N3CCC[C@H]3C(=O)O[C@H]2C)cc1 [Compound 51, (S)—N-((6S,8AS,14AS,16R,20S,21S,23AS)-16-HYDROXY-6,21-DIMETHYL-5,8,14,19,23-PENTAOXOOCTADECAHYDRO-1H,5H,14H,19H-PYRIDO[2,1-I]DIPYRROLO[2,1-C:2′,1′-L][1]OXA[4,7,10,13]TETRAAZACYCLOHEXADECIN-20-YL)-3-(M-TOLYL)-2-(3-(P-TOLYL)UREIDO)PROPANAMIDE] ({NH(4-Me-phenyl)-CO}-[Phe(3-Me)][aThr][Hyp][Pip]AP; ester 2-C)	>20	2.5 (≈ 1.97 µg/mL)	5 (≈ 3.94 µg/mL)	5 (≈ 3.94 µg/mL)	5 (≈ 3.94 µg/mL)		
Cc1cccc(C[C@H](NC(=O)Nc2ccc(Cl)cc2)C(=O)N[C@@H]2C(=O)N3C[C@H](O)C[C@H]3C(=O)N3CCCC[C@H]3C(=O)N[C@@H](C)C(=O)N3CCC[C@H]3C(=O)O[C@H]2C)c1 [Compound 59, (S)-2-(3-(4-CHLOROPHENYL)UREIDO)-N-((6S,8AS,14AS,16R,20S,21S,23AS)-16-HYDROXY-6,21-DIMETHYL-5,8,14,19,23-PENTAOXOOCTADECAHYDRO-1H,5H,14H,19H-PYRIDO[2,1-I]DIPYRROLO[2,1-C:2′,1′-L][1]OXA[4,7,10,13]TETRAAZACYCLOHEXADECIN-20-YL)-3-(M-TOLYL)PROPANAMIDE] ({NH(4-Cl-phenyl)-CO}-[Phe(3-Me)][aThr][Hyp][Pip]AP; ester 2-C)		1.25 (≈ 1.01 µg/mL)	5 (≈ 4.04 µg/mL)	2.5 (≈ 2.02 µg/mL)	1.25 (≈ 1.01 µg/mL)	0.81 ± 0.5	
Cc1cccc(C[C@H](NC(=O)Nc2cccc(Cl)c2)C(=O)N[C@H]2COC(=O)[C@@H]3C[C@@H](C)CN3C(=O)[C@H](C)NC(=O)[C@@H]3CCCCN3C(=O)[C@@H]3CCCN3C2=O)c1 [Compound 72, (S)-2-(3-(3-CHLOROPHENYL)UREIDO)-N-((2R,6S,8AS,14AS,20S,23AS)-2,6-DIMETHYL-5,8,14,19,23-PENTAOXOOCTADECAHYDRO-1H,5H,14H,19H-PYRIDO[2,1-I]DIPYRROLO[2,1-C:2′,1′-L][1]OXA[4,7,10,13]TETRAAZACYCLOHEXADECIN-20-YL)-3-(M-TOLYL)PROPANAMIDE]	>20	2.5 (≈ 1.98 µg/mL)	10 (≈ 7.92 µg/mL)	2.5 (≈ 1.98 µg/mL)	2.5 (≈ 1.98 µg/mL)		
Cc1cccc(C[C@H](NC(=O)Nc2ccc(Cl)cc2Cl)C(=O)N[C@@H]2C(=O)N3C[C@H](O)C[C@H]3C(=O)N3CCCC[C@H]3C(=O)N[C@@H](C)C(=O)N3C[C@H](C)C[C@H]3C(=O)O[C@H]2C)c1 [Compound 78, (S)-2-(3-(2,4-DICHLOROPHENYL)UREIDO)-N-((2R,6S,8AS,14AS,16R,20S,21S,23AS)-16-HYDROXY-2,6,21-TRIMETHYL-5,8,14,19,23-PENTAOXOOCTADECAHYDRO-1H,5H,14H,19H-PYRIDO[2,1-I]DIPYRROLO[2,1-C:2′,1′-L][1]OXA[4,7,10,13]TETRAAZACYCLOHEXADECIN-20-YL)-3-(M-TOLYL)PROPANAMIDE] ({X7-CO}-[Phe(3-Me)][aThr][Hyp][Pip]A[Pro(4R-Me)]; ester 2-C)						0.33 ± 0.1	
Cc1cccc(C[C@H](NC(=O)Nc2ccc(F)cc2)C(=O)N[C@@H]2C(=O)N3C[C@H](O)C[C@H]3C(=O)N3CCCC[C@H]3C(=O)N[C@@H](C)C(=O)N3C[C@H](C)C[C@H]3C(=O)O[C@H]2C)c1 [Compound 79, (S)-2-(3-(4-FLUOROPHENYL)UREIDO)-N-((2R,6S,8AS,14AS,16R,20S,21S,23AS)-16-HYDROXY-2,6,21-TRIMETHYL-5,8,14,19,23-PENTAOXOOCTADECAHYDRO-1H,5H,14H,19H-PYRIDO[2,1-I]DIPYRROLO[2,1-C:2′,1′-L][1]OXA[4,7,10,13]TETRAAZACYCLOHEXADECIN-20-YL)-3-(M-TOLYL)PROPANAMIDE] ({NH(4-F-phenyl)-CO}-[Phe(3-Me)][aThr][Hyp][Pip]A[Pro(4R-Me)]; ester 2-C)						0.9 ± 0.6	
Cc1cccc(C[C@H](NC(=O)Nc2ccccc2F)C(=O)N[C@@H]2C(=O)N3C[C@H](O)C[C@H]3C(=O)N3CCCC[C@H]3C(=O)N[C@@H](C)C(=O)N3C[C@H](C)C[C@H]3C(=O)O[C@H]2C)c1 [Compound 80, (S)-2-(3-(2-FLUOROPHENYL)UREIDO)-N-((2R,6S,8AS,14AS,16R,20S,21S,23AS)-16-HYDROXY-2,6,21-TRIMETHYL-5,8,14,19,23-PENTAOXOOCTADECAHYDRO-1H,5H,14H,19H-PYRIDO[2,1-I]DIPYRROLO[2,1-C:2′,1′-L][1]OXA[4,7,10,13]TETRAAZACYCLOHEXADECIN-20-YL)-3-(M-TOLYL)PROPANAMIDE] ({NH(2-F-phenyl)-CO}-[Phe(3-Me)][aThr][Hyp][Pip]A[Pro(4R-Me)]; ester 2-C)						0.59 ± 0.4	
